What was measured:
Format in all cases: in vivo
rice (Wells variety) = assay: Pre-emergent weed control in direct-seeded flooded rice (Example 2), rice injury; conditions: for % Rice Injury Rice Wells: pre-emergent, flooded, 28 Days After Treatment
From the text: Seeds of crops, rice (Taggart and Wells varieties) and weeds, yellow nutsedge (Cyperus esculentus), barnyardgrass (Echinochloa crus-galli), large crabgrass (Digitaria sanguinalis), hemp sesbania (Sesbania herbacea), Benghal dayflower (Commelina benghalensis), red rice (Oryza sativa) and broadleaf signalgrass (Urochloa platyphylla) were planted in two gallon pots containing top soil. Each pot was watered well before the application of mesotrione (Callisto® Herbicide from Syngenta Crop Protection).

red rice (Oryza sativa) [1] = assay: Pre-emergent evaluation on flooded rice, red rice control; conditions: PRE, direct-seeded flooded rice
Protocol: Rice (Oryza sativa) crop varieties (‘Cybonee’, ‘Jupiter’, and ‘Taggart’) and red rice (Oryza sativa) were planted in 6 inch plastic pots containing sterile top soil. Eight to ten seeds of each species were seeded at 12 o'clock, 3 o'clock, 6 o'clock or 9 o'clock around the pot. The pots were watered after planting. […] The test solutions were applied using a compressed air track spray chamber at 30 gallons per acre using a Teejet 8001E nozzle at 40 PSI, three replicates per test rate. After treatment, the pots were watered lightly and transferred to trays in a greenhouse. After the plants were two inches in height the trays were flooded with water and maintained as such for 14 days. The trays were emptied of water and the pots were maintained by regular watering for 4 more days. At 14, 21 and 28 days after treatment (DAT) the plants were evaluated versus untreated control pots containing the same rice and weeds using a scale of 0% (no control) to 100% (complete plant death).

red rice (Oryza sativa) [2] = assay: Pre-emergent evaluation on dryland rice, red rice control; conditions: for Percent red rice control: PRE, direct-seeded dryland rice
From the text: Rice (Oryza sativa) was planted in 6″ by 10″ fiber flats filled with sterile top soil. Five rows were made in each flat and the three rice varieties (′Cybonee, ‘Jupiter’, and ‘Taggart’) were planted in the center 3 rows and a row of red rice (Oryza sativa) was planted on either end of the flat. The flats were watered after planting. After application flats were placed in the greenhouse and lightly watered. […] The flats were moved to a greenhouse and watered and fertilized routinely. Studies were conducted using randomized complete block design with four replications. In both studies, visual percent red rice control and rice injury were recorded at 14, 21, and 28 days after treatment (DAT), using a scale of 0 (no control/injury) to 100 (complete plant death).

For `CS(=O)(=O)c1ccc(C(=O)C2C(=O)CCCC2=O)c([N+](=O)[O-])c1` [Mesotrione, mesotrione], the “% Rice Injury Rice Wells” value (rice (Wells variety); 6 g ai/ha) was 0%, the “% Rice Injury Rice Wells” value (rice (Wells variety); 12 g ai/ha) was 2% and the “% Rice Injury Rice Wells” value (rice (Wells variety); 25 g ai/ha) was 4%. For the same molecule, the “% Rice Injury Rice Wells” value (rice (Wells variety); 50 g ai/ha) was 5%, the “% Rice Injury Rice Wells” value (rice (Wells variety); 100 g ai/ha) was 12% and the “% Rice Injury Rice Wells” value (rice (Wells variety); 200 g ai/ha) was 47%. The “safety on white rice, Wells” value (rice (Wells variety); summary of Table 7 data) was “safe”, the “Percent red rice control” value (red rice (Oryza sativa) [1]; 14 DAT, 12.5 g ai/ha) was 68 BC % and the “Percent red rice control” value (red rice (Oryza sativa) [1]; 14 DAT, 25 g ai/ha) was 70 ABC %. For the same molecule, the “Percent red rice control” value (red rice (Oryza sativa) [1]; 14 DAT, 37.5 g ai/ha) was 78 AB %, the “Percent red rice control” value (red rice (Oryza sativa) [1]; 14 DAT, 50 g ai/ha) was 81 AB % and the “Percent red rice control” value (red rice (Oryza sativa) [1]; 14 DAT, 62.5 g ai/ha) was 81 AB %. The “Percent red rice control” value (red rice (Oryza sativa) [1]; 14 DAT, 75 g ai/ha) was 84 A %, the “Percent red rice control” value (red rice (Oryza sativa) [1]; 14 DAT, 87.5 g ai/ha) was 80 AB % and the “Percent red rice control” value (red rice (Oryza sativa) [1]; 14 DAT, 100 g ai/ha) was 84 A %. The “Percent red rice control” value (red rice (Oryza sativa) [1]; 21 DAT, 12.5 g ai/ha) was 91 A %, the “Percent red rice control” value (red rice (Oryza sativa) [1]; 21 DAT, 25 g ai/ha) was 97 A % and the “Percent red rice control” value (red rice (Oryza sativa) [1]; 21 DAT, 37.5 g ai/ha) was 98 A %. For the same molecule, the “Percent red rice control” value (red rice (Oryza sativa) [1]; 21 DAT, 50 g ai/ha) was 97 A %, the “Percent red rice control” value (red rice (Oryza sativa) [1]; 21 DAT, 62.5 g ai/ha) was 97 A % and the “Percent red rice control” value (red rice (Oryza sativa) [1]; 21 DAT, 75 g ai/ha) was 98 A %. The “Percent red rice control” value (red rice (Oryza sativa) [1]; 21 DAT, 87.5 g ai/ha) was 98 A %, the “Percent red rice control” value (red rice (Oryza sativa) [1]; 21 DAT, 100 g ai/ha) was 98 A % and the “Percent red rice control” value (red rice (Oryza sativa) [1]; 28 DAT, 12.5 g ai/ha) was 93 A %. The “Percent red rice control” value (red rice (Oryza sativa) [1]; 28 DAT, 25 g ai/ha) was 97 A %, the “Percent red rice control” value (red rice (Oryza sativa) [1]; 28 DAT, 37.5 g ai/ha) was 100 A % and the “Percent red rice control” value (red rice (Oryza sativa) [1]; 28 DAT, 50 g ai/ha) was 99 A %. For the same molecule, the “Percent red rice control” value (red rice (Oryza sativa) [1]; 28 DAT, 62.5 g ai/ha) was 99 A %, the “Percent red rice control” value (red rice (Oryza sativa) [1]; 28 DAT, 75 g ai/ha) was 100 A % and the “Percent red rice control” value (red rice (Oryza sativa) [1]; 28 DAT, 87.5 g ai/ha) was 98 A %. The “Percent red rice control” value (red rice (Oryza sativa) [1]; 28 DAT, 100 g ai/ha) was 100 A %, the “Percent red rice control” value (red rice (Oryza sativa) [2]; 14 DAT, 12.5 g ai/ha) was 33 D % and the “Percent red rice control” value (red rice (Oryza sativa) [2]; 14 DAT, 25 g ai/ha) was 70 B %. For the same molecule, the “Percent red rice control” value (red rice (Oryza sativa) [2]; 14 DAT, 37.5 g ai/ha) was 74 B %, the “Percent red rice control” value (red rice (Oryza sativa) [2]; 14 DAT, 50 g ai/ha) was 79 A % and the “Percent red rice control” value (red rice (Oryza sativa) [2]; 14 DAT, 62.5 g ai/ha) was 80 A %. For the same molecule, the “Percent red rice control” value (red rice (Oryza sativa) [2]; 14 DAT, 75 g ai/ha) was 80 A %, the “Percent red rice control” value (red rice (Oryza sativa) [2]; 14 DAT, 87.5 g ai/ha) was 80 A % and the “Percent red rice control” value (red rice (Oryza sativa) [2]; 14 DAT, 100 g ai/ha) was 80 A %. The “Percent red rice control” value (red rice (Oryza sativa) [2]; 21 DAT, 12.5 g ai/ha) was 60 C %, the “Percent red rice control” value (red rice (Oryza sativa) [2]; 21 DAT, 25 g ai/ha) was 81 B % and the “Percent red rice control” value (red rice (Oryza sativa) [2]; 21 DAT, 37.5 g ai/ha) was 84 AB %. The “Percent red rice control” value (red rice (Oryza sativa) [2]; 21 DAT, 50 g ai/ha) was 86 AB %, the “Percent red rice control” value (red rice (Oryza sativa) [2]; 21 DAT, 62.5 g ai/ha) was 89 AB % and the “Percent red rice control” value (red rice (Oryza sativa) [2]; 21 DAT, 75 g ai/ha) was 90 A %. The “Percent red rice control” value (red rice (Oryza sativa) [2]; 21 DAT, 87.5 g ai/ha) was 90 A %, the “Percent red rice control” value (red rice (Oryza sativa) [2]; 21 DAT, 100 g ai/ha) was 90 A % and the “Percent red rice control” value (red rice (Oryza sativa) [2]; 28 DAT, 12.5 g ai/ha) was 62 B %. For the same molecule, the “Percent red rice control” value (red rice (Oryza sativa) [2]; 28 DAT, 25 g ai/ha) was 89 A %, the “Percent red rice control” value (red rice (Oryza sativa) [2]; 28 DAT, 37.5 g ai/ha) was 88 A % and the “Percent red rice control” value (red rice (Oryza sativa) [2]; 28 DAT, 50 g ai/ha) was 91 A %. The “Percent red rice control” value (red rice (Oryza sativa) [2]; 28 DAT, 62.5 g ai/ha) was 92 A %, the “Percent red rice control” value (red rice (Oryza sativa) [2]; 28 DAT, 75 g ai/ha) was 92 A % and the “Percent red rice control” value (red rice (Oryza sativa) [2]; 28 DAT, 87.5 g ai/ha) was 95 A %. The “Percent red rice control” value (red rice (Oryza sativa) [2]; 28 DAT, 100 g ai/ha) was 93 A % and the “red rice control (words, FIG. 3)” value (red rice (Oryza sativa) [2]; pre-emergent treatment at 25 g ai/ha, direct seeded dryland rice test) was “controlled”.

Source: patent US9635854B2, “Controlling red rice with mesotrione” (FMC Corporation, priority 2014, dated 2017)
